{
  "source": "ChEMBL document CHEMBL2010739",
  "about": "“Antiproliferative activity of trans-avicennol from Zanthoxylum chiloperone var. angustifolium against human cancer stem cells” (J Nat Prod, 2012)",
  "key": {"[1]": {"test": "Antiproliferative activity against human TG1 cells at 34.2 ug/ml by WST-1 assay", "assay_type": "functional"}, "[2]": {"test": "Antiproliferative activity against human TG10 cells at 34.2 ug/ml by WST-1 assay", "assay_type": "functional"}, "[3]": {"test": "Antiproliferative activity against human NSC-24 cells at 34.2 ug/ml to 100 uM by WST-1 assay", "assay_type": "cell-based"}, "[4]": {"test_system": "TG1", "test": "Induction of Erk phosphorylation in human TG1 cells at 100 uM after 30 mins by Western blot analysis", "assay_type": "cell-based"}, "[5]": {"test_system": "NSC-24", "test": "Inhibition of Erk phosphorylation in human NSC-24 cells at 100 uM after 30 mins by Western blot analysis", "assay_type": "cell-based"}, "[6]": {"target": "Indoleamine 2,3-dioxygenase 1 (Homo sapiens, UniProt P14902)", "sequence (P14902 whole entry)": "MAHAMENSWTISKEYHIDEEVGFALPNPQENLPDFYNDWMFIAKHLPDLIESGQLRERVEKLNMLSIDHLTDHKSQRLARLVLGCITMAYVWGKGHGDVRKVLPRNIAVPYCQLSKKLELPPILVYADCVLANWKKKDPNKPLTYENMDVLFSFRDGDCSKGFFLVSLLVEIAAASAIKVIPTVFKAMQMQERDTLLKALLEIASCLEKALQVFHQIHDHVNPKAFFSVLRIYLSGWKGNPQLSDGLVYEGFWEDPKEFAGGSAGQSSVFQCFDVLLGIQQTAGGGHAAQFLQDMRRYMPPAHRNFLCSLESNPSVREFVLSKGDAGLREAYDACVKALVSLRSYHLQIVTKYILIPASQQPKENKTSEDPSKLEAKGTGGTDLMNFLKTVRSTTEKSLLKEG", "test": "Competitive inhibition of human indoleamine 2,3-dioxygenase assessed as conversion of N-formylkynurenine to kynurenine after 2 hrs by spectrophotometrical analysis"}},
  "note": "Activity calls are given as the source filed them. No cut-off for these calls is given here.",
  "data": [
    {"smiles": "COc1c2c(c3ccc(=O)oc3c1/C=C/C(C)(C)O)OC(C)(C)C=C2", "note": "[AVICENNOL]", "values": [
      {"measurement": "Activity", "setting": "[1]", "result": 35, "unit": "%"},
      {"measurement": "Activity", "setting": "[2]", "result": 40, "unit": "%"},
      {"measurement": "Activity", "setting": "[3]", "result": "Non-toxic"},
      {"measurement": "Activity", "setting": "[4]", "result": "Active"},
      {"measurement": "inhibition", "setting": "[5]", "result": "Active"},
      {"measurement": "Ki", "setting": "[6]", "result": 635, "unit": "µM"}
    ]}
  ]
}
